Results: US20170050936A1, “CERTAIN CHEMICAL ENTITIES, COMPOSITIONS, AND METHODS” (NEUPHARMA, INC., priority 2013, published 2017)
pIC50: −log10 of the molar value.

How the values were obtained:
H1299 cells = assay: Inhibition of cancer cell growth, MTT assay, H1299; settings: Homo sapiens, NCI-H1299, 72 h, read-out: IC50 in H1299 cells
Experimental: Inhibition of cell growth by compounds was measured using MTT assay (Mosmann, T., Journal of Immunological Methods, 1983, 65, 55-63). Tumor cell lines were purchased from ATCC (American Type Culture Collection, Manassas, Va.). All cell lines were maintained in RPMI 1640 (Hyclone) supplemented with 10% fetal bovine serum (FBS, Hyclone), glutamine (2 mM, Hyclone), and antibiotics (penicillin 100 U/mL and streptomycin 50 μg/mL) at 37° C. in a humidified atmosphere of 5% CO2 in air. Taxol (as a positive control, Sigma) and compounds were dissolved in DMSO (Sigma), and the final concentration of DMSO in the medium was 1%. Tumor cells were plated in 96-well plates at densities of about 4000 cells/well of a 96-well plate and allowed to adhere/grow for 24 h. They were then treated with various concentrations of drug for 72 h. […] The number of cells remaining after 72 h was compared to the number of viable cells at the time of compound addition by measuring the absorbance at 570 nm, allowing for the calculation of growth inhibition.
All concentrations of compounds were tested in triplicate and controls were averaged over 4 wells. IC50 was calculated by plotting the concentration of compound vs the percentage of inhibition in treated wells using GraphPad Prism 5. […]

FGFR1 = molecular target: T1, FGFR1 (Homo sapiens, UniProt P11362); assay: Z'-LYTE kinase inhibition assay, FGFR1; type: biochemical; settings: read-out: IC50 against FGFR1
T1 construct: purchased Invitrogen
Experimental: (§1) Inhibitory activities of compounds against BTK, EGFR and EGFR mutants (EGFR L858R, EGFR T790M, EGFR L858R/T790M), FGFR1, FGFR2, JAK2, JAK3 and KDR were measured by Invitrogen using Z′-LYTE® Method as briefly described in the following.
(§2) Test Compounds are screened in 1% DMSO (final) in the well. For 10 point titrations, 3-fold serial dilutions are conducted from the starting concentration. All ATP Solutions are diluted to a 4× working concentration in Kinase Buffer (50 mM HEPES pH 7.5, 0.01% BRIJ-35, 10 mM MgCl2, 1 mM EGTA). Peptide/Kinase Mixtures are diluted to a 2× working concentration in the appropriate Kinase Buffers as described below.
(v) Peptide/Kinase Mixtures for measurement of FGFR1:
(§3) The 2× FGFR1/Tyr 04 mixture is prepared in 50 mM HEPES pH 7.5, 0.01% BRIJ-35, 10 mM MgCl2, 4 mM MnCl2, 1 mM EGTA, 2 mM DTT. The final 10 μL Kinase Reaction consists of 0.41-3.5 ng FGFR1 and 2 μM Tyr 04 in 50 mM HEPES pH 7.5, 0.01% BRIJ-35, 10 mM MgCl2, 2 mM MnCl2, 1 mM EGTA, 1 mM DTT. After the 1 hour Kinase Reaction incubation, 5 μL of a 1:64 dilution of Development Reagent B is added.
(§4) Reaction starts by 30-second shaking of mixture consisting of 2.5 μL 4× test compound, 5 μL 2× kinase reaction mixture and 2.5 μL 4× ATP Solution on Bar-coded Corning, low volume NBS, black 384-well plate (Corning Cat. #3676). Then the mixture is incubated for 60-minute at room temperature for the kinase reaction, followed by addition of 5 μL of a 1:1024 dilution of development reagent A and 30-second plate shake. The mixture is then incubated for another 60-minute at room temperature for development reaction. Finally fluorescence is read by plate reader.
(§5) To determine IC50 of a compound against EGFR, EGFR mutant and other kinases, a series of concentrations of the compound were tested for the inhibition. […] The scale utilized in Table 4 is as follows: +++ less than 100 nM, ++100-500 nM and + greater than 500 nM.

KDR (VEGFR2) = molecular target: T2, KDR (VEGFR2) (Homo sapiens, UniProt P35968); assay: Z'-LYTE kinase inhibition assay, KDR; type: biochemical; settings: read-out: IC50 against KDR
T2 construct: purchased Invitrogen
Experimental: as §1, §2
(v) Peptide/Kinase Mixtures for measurement of KDR (VEGFR2):
The 2× KDR (VEGFR2)/Tyr 01 mixture is prepared in 50 mM HEPES pH 7.5, 0.01% BRIJ-35, 10 mM MgCl2, 1 mM EGTA. The final 10 μL Kinase Reaction consists of 0.5-11.7 ng KDR (VEGFR2) and 2 μM Tyr Olin 50 mM HEPES pH 7.5, 0.01% BRIJ-35, 10 mM MgCl2, 1 mM EGTA. After the 1 hour Kinase Reaction incubation, 5 μL of a 1:256 dilution of Development Reagent B is added.
as §4, §5

EGFR (ErbB1) = molecular target: T3, EGFR (ErbB1) (Homo sapiens, UniProt P00533); assay: Z'-LYTE kinase inhibition assay, EGFR; type: biochemical; settings: read-out: IC50 against EGFR
T3 construct: purchased Invitrogen
Experimental: Inhibitory activities of compounds against BTK, EGFR and EGFR mutants (EGFR L858R, EGFR T790M, EGFR L858R/T790M), FGFR1, FGFR2, JAK2, JAK3 and KDR were measured by Invitrogen using Z'-LYTE® Method as briefly described in the following. Test Compounds are screened in 1% DMSO (final) in the well. For 10 point titrations, 3-fold serial dilutions are conducted from the starting concentration. All ATP Solutions are diluted to a 4× working concentration in Kinase Buffer (50 mM HEPES pH 7.5, 0.01% BRIJ-35, 10 mM MgCl2, 1 mM EGTA). Peptide/Kinase Mixtures are diluted to a 2× working concentration in the appropriate Kinase Buffers as described below. (i) Peptide/Kinase Mixtures for measurement of EGFR (ErbB1): The 2× EGFR (ErbB1)/[…] mixture is prepared in 50 mM HEPES pH 7.5, 0.01% BRIJ-35, 10 mM MgCl2, 4 mM MnCl2, 1 mM EGTA, 2 mM DTT. The final 10 μL Kinase Reaction consists of 1.1-5.25 ng EGFR (ErbB1) and 2 μM […] in 50 mM HEPES pH 7.5, 0.01% BRIJ-35, 10 mM MgCl2, 2 mM MnCl2, 1 mM EGTA, 1 mM DTT. After the 1 hour Kinase Reaction incubation, 5 μL of a 1:64 dilution of Development Reagent B is added. Reaction starts by 30-second shaking of mixture consisting of 2.5 μL 4× test compound, 5 μL 2× kinase reaction mixture and 2.5 μL 4× ATP Solution on Bar-coded Corning, low volume NBS, black 384-well plate (Corning Cat. #3676). Then the mixture is incubated for 60-minute at room temperature for the kinase reaction, followed by addition of 5 μL of a 1:1024 dilution of development reagent A and 30-second plate shake. The mixture is then incubated for another 60-minute at room temperature for development reaction. Finally fluorescence is read by plate reader. To determine IC50 of a compound against EGFR, EGFR mutant and other kinases, a series of concentrations of the compound were tested for the inhibition.

FGFR2 = molecular target: T4, FGFR2 (Homo sapiens, UniProt P21802); assay: Z'-LYTE kinase inhibition assay, FGFR2; type: biochemical; settings: read-out: IC50 against FGFR2
T4 construct: purchased Invitrogen
Experimental: as §1, §2
(v) Peptide/Kinase Mixtures for measurement of FGFR2:
as §3, with “FGFR2/Tyr” for “FGFR1/Tyr”, “0.19-2.36” for “0.41-3.5”, “FGFR2” for “FGFR1”
as §4, §5

T2 sequence (P35968 20-1356): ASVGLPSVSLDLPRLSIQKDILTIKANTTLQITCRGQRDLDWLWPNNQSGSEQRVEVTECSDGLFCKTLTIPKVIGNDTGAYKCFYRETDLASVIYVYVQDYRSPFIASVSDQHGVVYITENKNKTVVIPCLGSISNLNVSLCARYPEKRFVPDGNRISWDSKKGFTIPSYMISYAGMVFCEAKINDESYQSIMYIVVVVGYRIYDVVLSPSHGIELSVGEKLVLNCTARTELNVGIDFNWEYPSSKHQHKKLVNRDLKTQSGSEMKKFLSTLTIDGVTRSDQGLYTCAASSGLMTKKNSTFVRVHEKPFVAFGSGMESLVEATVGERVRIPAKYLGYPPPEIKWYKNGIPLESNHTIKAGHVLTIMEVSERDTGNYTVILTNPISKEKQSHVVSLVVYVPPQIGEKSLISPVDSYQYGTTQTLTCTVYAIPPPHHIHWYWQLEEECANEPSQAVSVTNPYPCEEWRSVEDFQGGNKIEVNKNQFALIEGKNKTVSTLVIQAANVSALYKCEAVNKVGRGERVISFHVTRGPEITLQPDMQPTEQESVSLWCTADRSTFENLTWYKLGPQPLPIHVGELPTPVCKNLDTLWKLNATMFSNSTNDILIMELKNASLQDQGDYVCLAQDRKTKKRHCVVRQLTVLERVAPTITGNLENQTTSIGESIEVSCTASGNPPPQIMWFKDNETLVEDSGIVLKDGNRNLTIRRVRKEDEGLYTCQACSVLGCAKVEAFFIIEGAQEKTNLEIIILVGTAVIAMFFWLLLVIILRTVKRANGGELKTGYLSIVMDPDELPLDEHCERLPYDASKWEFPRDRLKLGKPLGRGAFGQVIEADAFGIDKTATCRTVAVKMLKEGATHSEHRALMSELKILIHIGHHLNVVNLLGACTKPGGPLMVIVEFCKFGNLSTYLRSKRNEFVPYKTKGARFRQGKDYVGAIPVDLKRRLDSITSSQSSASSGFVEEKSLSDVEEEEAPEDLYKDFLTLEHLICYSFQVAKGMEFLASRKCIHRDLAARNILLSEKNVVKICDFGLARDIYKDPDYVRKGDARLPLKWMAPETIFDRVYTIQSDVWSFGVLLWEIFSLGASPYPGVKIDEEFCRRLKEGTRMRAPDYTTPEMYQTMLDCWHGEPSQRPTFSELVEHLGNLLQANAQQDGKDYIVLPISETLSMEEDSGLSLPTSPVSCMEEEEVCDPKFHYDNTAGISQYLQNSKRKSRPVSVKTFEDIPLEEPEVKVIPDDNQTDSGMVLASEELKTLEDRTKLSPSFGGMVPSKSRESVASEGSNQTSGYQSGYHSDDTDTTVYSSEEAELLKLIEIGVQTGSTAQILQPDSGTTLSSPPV
T1 sequence (P11362 22-822): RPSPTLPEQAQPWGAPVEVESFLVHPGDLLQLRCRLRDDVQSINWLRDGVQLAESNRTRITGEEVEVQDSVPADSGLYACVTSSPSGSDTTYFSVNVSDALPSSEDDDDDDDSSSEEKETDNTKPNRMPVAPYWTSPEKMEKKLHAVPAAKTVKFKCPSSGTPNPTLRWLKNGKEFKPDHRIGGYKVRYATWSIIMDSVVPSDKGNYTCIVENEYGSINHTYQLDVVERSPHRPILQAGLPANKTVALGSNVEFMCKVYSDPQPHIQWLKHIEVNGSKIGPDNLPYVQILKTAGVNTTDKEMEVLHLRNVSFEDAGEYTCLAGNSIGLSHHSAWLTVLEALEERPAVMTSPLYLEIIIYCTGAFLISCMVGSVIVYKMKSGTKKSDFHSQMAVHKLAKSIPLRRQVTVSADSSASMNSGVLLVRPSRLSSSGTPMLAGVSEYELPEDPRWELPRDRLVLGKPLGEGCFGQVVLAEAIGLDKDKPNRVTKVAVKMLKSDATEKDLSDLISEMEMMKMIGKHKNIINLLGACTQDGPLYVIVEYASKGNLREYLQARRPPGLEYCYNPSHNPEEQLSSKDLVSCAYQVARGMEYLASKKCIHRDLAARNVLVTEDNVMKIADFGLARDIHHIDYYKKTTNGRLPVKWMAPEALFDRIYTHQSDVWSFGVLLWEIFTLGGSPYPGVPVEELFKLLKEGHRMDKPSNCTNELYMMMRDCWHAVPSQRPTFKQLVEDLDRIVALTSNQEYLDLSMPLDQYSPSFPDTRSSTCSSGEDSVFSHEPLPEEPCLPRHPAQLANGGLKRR
T4 sequence (P21802 22-821): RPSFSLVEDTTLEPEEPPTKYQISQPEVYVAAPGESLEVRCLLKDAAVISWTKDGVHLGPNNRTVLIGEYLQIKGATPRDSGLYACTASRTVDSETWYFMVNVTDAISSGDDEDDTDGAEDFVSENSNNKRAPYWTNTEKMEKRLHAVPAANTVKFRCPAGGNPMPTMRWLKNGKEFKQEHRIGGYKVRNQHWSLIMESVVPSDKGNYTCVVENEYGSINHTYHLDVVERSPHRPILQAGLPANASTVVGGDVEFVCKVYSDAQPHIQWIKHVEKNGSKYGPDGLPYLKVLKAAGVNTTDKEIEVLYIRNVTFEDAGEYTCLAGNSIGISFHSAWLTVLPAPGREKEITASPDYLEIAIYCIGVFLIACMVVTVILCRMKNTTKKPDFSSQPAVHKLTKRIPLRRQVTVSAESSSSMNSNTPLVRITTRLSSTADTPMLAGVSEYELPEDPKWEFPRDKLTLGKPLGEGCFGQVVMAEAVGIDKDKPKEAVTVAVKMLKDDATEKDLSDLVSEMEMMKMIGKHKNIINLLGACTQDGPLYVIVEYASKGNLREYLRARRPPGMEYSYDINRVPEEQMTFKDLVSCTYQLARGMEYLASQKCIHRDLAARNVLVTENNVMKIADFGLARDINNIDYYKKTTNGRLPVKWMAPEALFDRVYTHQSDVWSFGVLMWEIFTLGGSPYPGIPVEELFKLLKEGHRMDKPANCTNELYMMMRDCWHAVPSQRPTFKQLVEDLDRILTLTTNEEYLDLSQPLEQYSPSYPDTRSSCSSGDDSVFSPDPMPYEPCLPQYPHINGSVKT
T3 sequence (P00533 25-1210): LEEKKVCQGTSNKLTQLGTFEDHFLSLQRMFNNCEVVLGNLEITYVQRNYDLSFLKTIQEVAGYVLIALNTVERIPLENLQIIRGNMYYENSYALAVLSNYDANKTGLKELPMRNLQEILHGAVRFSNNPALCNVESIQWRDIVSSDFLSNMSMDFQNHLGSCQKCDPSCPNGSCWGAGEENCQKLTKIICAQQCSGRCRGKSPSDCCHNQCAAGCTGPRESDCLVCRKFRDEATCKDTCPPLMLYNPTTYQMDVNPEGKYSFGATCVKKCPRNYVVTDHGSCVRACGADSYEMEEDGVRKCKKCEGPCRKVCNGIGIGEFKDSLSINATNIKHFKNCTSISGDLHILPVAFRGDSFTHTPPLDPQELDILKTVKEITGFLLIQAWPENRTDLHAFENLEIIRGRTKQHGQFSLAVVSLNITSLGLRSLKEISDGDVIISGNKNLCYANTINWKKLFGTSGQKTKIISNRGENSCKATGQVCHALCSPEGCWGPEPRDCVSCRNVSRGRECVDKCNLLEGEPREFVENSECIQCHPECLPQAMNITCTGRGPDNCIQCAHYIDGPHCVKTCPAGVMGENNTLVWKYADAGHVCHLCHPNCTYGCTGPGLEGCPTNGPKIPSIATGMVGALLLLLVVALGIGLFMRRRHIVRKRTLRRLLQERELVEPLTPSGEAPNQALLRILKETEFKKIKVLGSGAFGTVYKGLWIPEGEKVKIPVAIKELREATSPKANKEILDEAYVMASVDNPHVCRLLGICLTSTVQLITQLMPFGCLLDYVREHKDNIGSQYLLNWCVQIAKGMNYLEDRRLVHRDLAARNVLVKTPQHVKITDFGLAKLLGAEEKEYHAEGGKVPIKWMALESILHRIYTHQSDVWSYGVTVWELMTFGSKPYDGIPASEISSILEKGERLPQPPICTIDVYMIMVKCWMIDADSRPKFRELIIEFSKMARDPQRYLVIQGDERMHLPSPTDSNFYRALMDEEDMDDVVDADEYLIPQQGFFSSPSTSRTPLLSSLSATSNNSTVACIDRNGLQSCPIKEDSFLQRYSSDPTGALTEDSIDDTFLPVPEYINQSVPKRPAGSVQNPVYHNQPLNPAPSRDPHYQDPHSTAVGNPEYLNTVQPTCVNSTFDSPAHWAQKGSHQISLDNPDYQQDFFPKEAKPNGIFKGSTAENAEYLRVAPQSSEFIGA

Row | Structure (SMILES) | pIC50 (FGFR1) | pIC50 (KDR (VEGFR2)) | pIC50 (EGFR (ErbB1)) | pIC50 (FGFR2) | also measured
1 | C=CC(=O)Nc1cccc(-c2cccc3cnc(Nc4cc(F)c(N5CCN(C)CC5)c(F)c4)nc23)c1 [Example C146, N-(3-(2-((3,5-difluoro-4-(4-methylpiperazin-1-yl)phenyl)amino)quinazolin-8-yl)phenyl)acrylamide] |  |  |  |  | pIC50 (H1299 cells): > 7.00
2 | C=CC(=O)Nc1cccc(-c2cccc3cnc(Nc4ccc(N5CCN(C)CC5)cc4F)nc23)c1 [Example C044, N-(3-(2-((2-fluoro-4-(4-methylpiperazin-1-yl)phenyl)amino)quinazolin-8-yl)phenyl)acrylamide] | 6.30 to 7.00 | 6.30 to 7.00 |  |  | 
3 | C=CC(=O)Nc1cccc(-c2cccc3cnc(Nc4ccc(OCCO)cc4)nc23)c1 [Example C108, N-(3-(2-((4-(2-hydroxyethoxy)phenyl)amino)quinazolin-8-yl)phenyl)acrylamide] |  |  | 6.30 to 7.00 |  | 
4 | C=CC(=O)Nc1cccc(-c2cccc3cnc(Nc4ccc(N5CCN(CCO)CC5)cc4F)nc23)c1 [Example C147, N-(3-(2-((2-fluoro-4-(4-(2-hydroxyethyl)piperazin-1-yl)phenyl)amino)quinazolin-8-yl)phenyl)acrylamide] | 6.30 to 7.00 | 6.30 to 7.00 |  | 6.30 to 7.00 | 
5 | C=CC(=O)Nc1cccc(-c2cccc3cnc(Nc4ccc(N5CCN(CCO)CC5)cc4)nc23)c1 [Example C059, N-(3-(2-((4-(4-(2-hydroxyethyl)piperazin-1-yl)phenyl)amino)quinazolin-8-yl)phenyl)acrylamide] |  |  |  | 6.30 to 7.00 | 
6 | C=CC(=O)Nc1cccc(-c2cccc3cnc(Nc4ccc(N5CCN(C(C)=O)CC5)cc4)nc23)c1 [Example C032, N-(3-(2-((4-(4-acetylpiperazin-1-yl)phenyl)amino)quinazolin-8-yl)phenyl)acrylamide] |  |  | 6.30 to 7.00 |  | 
7 | C=CC(=O)Nc1cccc(-c2cccc3cnc(Nc4ccc(N5CCN(CCO)CC5)c(F)c4F)nc23)c1 [Example C151, N-(3-(2-((2,3-difluoro-4-(4-(2-hydroxyethyl)piperazin-1-yl)phenyl)amino)quinazolin-8-yl)phenyl)acrylamide] | 6.30 to 7.00 | 6.30 to 7.00 |  | 6.30 to 7.00 | 
8 | C=CC(=O)Nc1cccc(-c2cccc3cnc(Nc4ccc(OC5CCN(C)CC5F)cc4)nc23)c1 (centres unmarked) [Example C079, N-(3-(2-((4-((3-fluoro-1-methylpiperidin-4-yl)oxy)phenyl)amino)quinazolin-8-yl)phenyl)acrylamide] |  |  | 6.30 to 7.00 |  | 
9 | C=CC(=O)Nc1cccc(-c2cccc3cnc(Nc4ccc(N5CCN(C)CC5)c(C(N)=O)c4)nc23)c1 [Example C085, 5-((8-(3-acrylamidophenyl)quinazolin-2-yl)amino)-2-(4-methylpiperazin-1-yl)benzamide] |  |  | 6.30 to 7.00 |  | 
